From patent US8617563B2, “Antichlamydial agents” (Duke University, priority 2011, dated 2013)

Tests used:
[1] = biological target: T1, CPAF (Chlamydia trachomatis serovar D, UniProt O84866); test: HPLC-based CPAF inhibition assay with Abz-tagged model substrate (SEQ ID NO:9); type: biochemical, C. trachomatis; design: 6xHis; made in house; host or cells: E. coli BL21 (DE3), plasmid pET30b-CPAF; conditions: CPAF 62.5 nM, substrate SEQ ID NO:9 0.5 mM, inhibitor 0-240 μM
Procedure: FIG. 1 depicts the results of HPLC-based CPAF inhibition assays using a model CPAF substrate (SEQ ID NO:9) to compare inhibition of CPAF protease activity by SEQ ID NO:7, SEQ ID NO:2, and lactacystin. HPLC-based assays were performed in a final volume of 100 μL containing assay buffer, CPAF (62.5 nM), substrate 1 (0.5 mM), and varying concentrations of inhibitor (0-240 μM).
HPLC-based assays comprised an Abz-tagged model CPAF substrate (SEQ ID NO:9) and were performed in a final volume of 100 μL containing 150 mM NaCl, 50 mM Tris pH 7.50, purified CPAF (62.5 nM), fluorescent-tagged model CPAF substrate (0.5 mM), and varying concentrations of each candidate compound (0-240 μM). IC50 values were determined by pre-incubating CPAF with varying concentrations of candidate compound for 5 min at room temperature prior to initiation of the reaction via the addition of model CPAF substrate. Reactions were allowed to proceed for 90 seconds at 25° C., followed by removal of 80 μL aliquots and quenching by the addition of 1.2 M HCl (40 μL). Data were converted to percent activity relative to a control reaction without candidate compound and fit to the following equation using GraFit v6.0, where [I] is the concentration of candidate compound and s is a slope factor: […]
Target sequence in this assay (O84866 276-601): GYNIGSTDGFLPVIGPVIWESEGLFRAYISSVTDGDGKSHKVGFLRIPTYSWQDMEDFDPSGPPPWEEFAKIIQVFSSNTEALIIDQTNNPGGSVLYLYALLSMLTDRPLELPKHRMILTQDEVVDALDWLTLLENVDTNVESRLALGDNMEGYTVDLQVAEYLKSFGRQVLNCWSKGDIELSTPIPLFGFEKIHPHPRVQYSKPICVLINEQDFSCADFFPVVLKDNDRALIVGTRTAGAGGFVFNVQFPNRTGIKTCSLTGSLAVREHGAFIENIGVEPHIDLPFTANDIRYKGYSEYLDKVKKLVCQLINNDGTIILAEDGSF
Target sequence in this assay (O84866 1-234, added parts left off): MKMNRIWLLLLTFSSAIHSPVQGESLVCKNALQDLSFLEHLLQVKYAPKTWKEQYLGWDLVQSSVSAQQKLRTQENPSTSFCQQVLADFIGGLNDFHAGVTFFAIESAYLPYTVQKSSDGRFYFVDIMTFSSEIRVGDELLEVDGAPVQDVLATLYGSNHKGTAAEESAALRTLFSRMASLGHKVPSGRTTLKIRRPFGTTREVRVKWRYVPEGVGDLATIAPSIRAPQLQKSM

[2] = biological target: T1, CPAF; design: endogenous in cells; host or cells: HeLa cells infected with C. trachomatis LGV-L2 434/Bu (the bacteria make the protein and secrete it into the host cytosol); conditions: C. trachomatis LGV-L2 434-infected HeLa cells; Kumar et al. 2008; cited from earlier work
Target sequence in this assay (O84866 276-601): as the sequence (O84866 276-601) above
Target sequence in this assay (O84866 24-234): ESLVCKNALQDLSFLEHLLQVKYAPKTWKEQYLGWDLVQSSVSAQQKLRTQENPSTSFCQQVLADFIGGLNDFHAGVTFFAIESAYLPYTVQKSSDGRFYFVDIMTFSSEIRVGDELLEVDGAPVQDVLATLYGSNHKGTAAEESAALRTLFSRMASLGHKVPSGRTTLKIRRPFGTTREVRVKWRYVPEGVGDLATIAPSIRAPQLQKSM

[3] = biological target: T1, CPAF; type: biochemical, C. trachomatis; design: 6xHis; made in house; host or cells: E. coli (pET30b); conditions: GST-tagged chlamydial substrates, 37° C., 20 min
Procedure: FIG. 4 depicts (A) Recombinant Chlamydia ORFs were tested for sensitivity to host and bacterial derived proteases. […] Purified his-tagged CPAF was incubated with GST-tagged chlamydial substrates at 37° C. for 20 min with increasing amounts of lactacystin. Cleavage products were run on an SDS PAGE gel and visualized with Coomassie blue staining. (C) Schematic summary of CPAF targets. […] Membranes from Chlamydia-infected HeLa cells were harvested and purified at 0, 24, 36 and 48 hours post-infection, and the abundance of the chlamydial proteins Ct005, IncC and IncD were monitored with specific antibodies. Na/K ATPase and IncG served as host and bacterial-loading controls, respectively.
(§1) Cytosols from Chlamydia-infected HeLa cells (40 hrs) or recombinant his-tagged CPAF were pre-treated with rabbit polyclonal anti-CPAF or anti-IncA antisera, and incubated with GST-tagged Chlamydia proteins for 20 min at 37° C. […] Three example proteins shown include a type-III secretion (T3S) core component (CdsQ) a T3S chaperone (Mcsc) and a T3S needle component (Ct584). Processing of recombinant proteins in A-B were monitored by immunoblot analysis with specific antibodies. (C) Protease inhibitor profile of recombinant CPAF. Example shown for the chlamydial substrate GST-IncC. Degradation products were visualized by SDS-PAGE followed by staining with Coomassie blue. […]
Uninfected and HeLa cells pre-infected with L2 for 30 hrs were treated with inhibitory peptides and infected with EBs for 10 min Tarp translocation was indirectly visualized with an anti-phosphotyrosine antibody (A) and quantified by counting 50 separate cells (B). The stability of newly translocated Tarp was assessed by infecting cells as in (A) but with S^35-labeled EBs, followed by sequential immunoprecipitation of Tarp and MOMP and Phosphoimager analysis of precipitated material (C (I-IV)). […] IC50 values were determined by assessing CPAF cleavage of an Abz-tagged CPAF substrate (SEQ ID NO:9) by HPLC. […] Extracellular bacteria were determined. […] The number of internalized EBs was quantified per cell (H). […]
Target sequence in this assay (O84866 1-234, added parts left off): as the sequence (O84866 1-234, added parts left off) above
Target sequence in this assay (O84866 276-601): as the sequence (O84866 276-601) above

[4] = biological target: T1, CPAF; type: biochemical, C. trachomatis; design: endogenous in cells; host or cells: HeLa cells infected with C. trachomatis LGV-L2 434/Bu (the bacteria make the protein and secrete it into the host cytosol); conditions: cytosol pre-treated with inhibitor or antibody
Procedure: as §1, with “FIG. 5 depicts (A) that Polyclonal anti-CPAF antisera blocks proteolysis of chlamydial substrates. Cytosols” for “Cytosols”, “GST-IncC.” for “GST-IncC. Degradation products were visualized by SDS-PAGE followed by staining with Coomassie blue.”
Target sequence in this assay (O84866 276-601): as above
Target sequence in this assay (O84866 24-234): as the sequence (O84866 24-234) above
Recombinant CPAF was generated using pET30b (Huang et al., Cell Host & Microbe, 4:529-542 (2008). For in vitro cleavage assays, Chlamydia ORFs were expressed in either yeast or E. coli. Crude recombinant proteins were incubated for 30 minutes with cytosol from uninfected or LGV-L2 infected (40 h) HeLa cells, and processing was assessed by SDS-PAGE and immunoblotting using standard techniques. Approximately 8% of the expressed chlamydial proteins were sensitive to degradation after incubation with cytosol derived from infected cells (FIG. 3A). Processing ranged from the generation of distinct cleavage fragments to complete degradation (FIG. 3B). […]

In the case of CC(=O)N[C@@H](CSC(=O)[C@]1([C@@H](O)C(C)C)NC(=O)[C@H](C)[C@@H]1O)C(=O)O [lactacystin], the IC50 [1] is given as 10.2 ± 2.3 µM, the “Vimentin state in infected HeLa cells treated with lactacystin” value [2] is given as “fiber oligomerization of vimentin” and the “Inhibition of proteolysis by recombinant CPAF” value [3] is given as “inhibited”. For the same compound, the “Protection of chlamydial proteins from degradation by cytosols of Chlamydia-infected cells” value [4] was “protected from degradation”.
